Reference: patent US8242102B2, “Quinoline compounds suitable for treating disorders that respond to modulation of the serotonin 5-HT6 receptor” (Abbott GmbH & Co. KG, priority 2007, dated 2012)
pKd, pKi: −log10 of the molar value. Counter-ions that a name gives are not always drawn.

Columns and labels:
h-5-HT6 receptor = biological target: T1, h-5-HT6 receptor (Homo sapiens, UniProt P50406); assay: 5-HT6 receptor binding assay, displacement of [3H]-LSD; conditions: membranes of HEK293 cells expressing h-5-HT6, 1 nM [3H]-LSD
T1 construct: expressed in transfected cells; host or cells: HEK293
T1 sequence (P50406 whole entry): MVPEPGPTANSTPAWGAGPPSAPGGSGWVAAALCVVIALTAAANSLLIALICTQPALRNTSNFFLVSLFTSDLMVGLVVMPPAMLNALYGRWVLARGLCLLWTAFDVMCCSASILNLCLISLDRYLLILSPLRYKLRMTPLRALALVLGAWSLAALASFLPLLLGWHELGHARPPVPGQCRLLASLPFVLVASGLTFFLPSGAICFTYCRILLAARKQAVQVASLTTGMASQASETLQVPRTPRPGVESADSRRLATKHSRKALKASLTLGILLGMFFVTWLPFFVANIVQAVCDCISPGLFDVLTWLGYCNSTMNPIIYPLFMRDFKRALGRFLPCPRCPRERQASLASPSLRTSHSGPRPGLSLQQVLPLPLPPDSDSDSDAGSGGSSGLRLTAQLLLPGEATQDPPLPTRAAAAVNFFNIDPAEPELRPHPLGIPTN
Experimental: Displacement of Radioligands Binding to the Following Cloned Human Receptors
(§1) 1. Preparation of Membranes by Ultrasonic Treatment and Differential Centrifugation
Cells from stable clonal cell lines expressing the corresponding receptor (5-HT6, 1-adrenergic, dopamine D2 or histamine H1 receptors) were washed with PBS (w/o Ca^++, Mg^++) and harvested in PBS with 0.02% EDTA. The cells were collected by centrifugation at 500 g for 10 min. at 4° C., washed with PBS and centrifuged (500 g, 10 min. 4° C.). The pellets were stored at −80° C. until use. For membrane preparation, the thawed cell pellet was resuspended in ice-cold sucrose buffer (0.25 M sucrose, 10 mM Hepes (pH 7.4), 1 mM Phenylmethylsulfonyl fluoride (PMSF) in DMSO, […] Pepstatin-A, 3 mM EDTA, 0.025% Bacitracin) and homogenized with a Branson Sonifier W-250 (Settings: Timer 4; Output Control 3; Duty Cycle constant; 2 to 3 cycles). Cell disruption was checked with the aid of a microscope. Remaining unbroken cells were pelleted at 1,000 g for 10 min. at 4° C. The sucrose buffer supernatant was then centrifuged at 60,000 g for 1 h at 4° C. (Beckman Ultrazentrifuge XL 80). The pellet was resuspended in 30 ml ice-cold Tris buffer (20 mM TRIS (pH 7.4), […] Pepstatin A, 0.1 mM PMSF, 3 mM EDTA) by pipetting through a 10 ml serological pipet and centrifuged for 1 h at 4° C. at 60,000 g. A final resuspension was performed in a small volume of ice-cold Tris buffer (see above) by pressing through a serological pipet followed by ultrasonic treatment with a Branson Sonifier W-250 (Settings: Timer 1; Output Control 3; Duty Cycle constant; 1 cycle). Protein concentration was determined (BCA-Kit; Pierce) and aliquots stored at −80° C. or in liquid nitrogen for long-term storage.
(§2) 2. Receptor Binding Experiments
All receptor binding experiments were carried out in the corresponding assay buffer in a total volume of 200 μl in the presence of various concentrations of test compound (10^−5 M to 10^−9 M, tenfold serial dilution, duplicate determinations). The assays were terminated by filtration on polyethylenimine (PEI 0.1% or 0.3%) presoaked Packard Unifilter Plates (GF/C or GF/B) with a Tomtec MachIII U 96 well-plate harvester. After the plates had been dried for 2 h at 55° C. in a drying chamber scintillation cocktail (BetaPlate Scint; PerkinElmer) was added. Radioactivity was measured in a Microbeta Trilux two hours after the addition of the scintillation mixture. Data derived from liquid scintillation counting were analysed by iterative non-linear regression analysis with the use of the Statistical Analysis System (SAS): a program similar to “LIGAND” as described by Munson and Rodbard (Analytical Biochemistry 107, 220-239 (1980).
a) 5-HT6 Receptor Binding Assay
HEK293 cells stably expressing the h-5-HT6 receptor (NCBI Reference Sequence XM 001435) were cultured in RPMI1640 medium supplemented with 25 mM HEPES, 10% fetal calf serum and 1-2 mM glutamine. The membrane preparation was performed as described in section 1. […] Non-specific binding was defined with 1 μM methiothepin. The binding reaction was carried out for 3.5 h at room temperature. During the incubation, the plates were shaken on a plate shaker at 100 rpm and terminated by filtration on Packard Unifilter GF/C (0.1% PEI) plates, followed by 2 wash cycles with ice-cold 50 mM Tris-HCl, 5 mM CaCl2.
Data derived from liquid scintillation counting were analyzed by iterative non-linear regression analysis with the use of the Statistical Analysis System (SAS): a program similar to “LIGAND” as described by Munson and Rodbard (Anal. Biochem. 1980, 107, 220-239). Fitting was performed according to formulae described by Feldman (Anal. Biochem. 1972, 48, 317-338). IC50, nH and Ki values were expressed as geometrical mean.

dopamine D2 receptor = biological target: T2, dopamine D2 receptor (Homo sapiens, UniProt P14416); assay: Dopamine D2 receptor binding assay, displacement of [125I]-iodospiperone; conditions: saturation binding, HEK293 dopamine D2 membranes; read-out: KD of radioligand
T2 construct: expressed in transfected cells; host or cells: HEK293
T2 sequence (P14416 whole entry): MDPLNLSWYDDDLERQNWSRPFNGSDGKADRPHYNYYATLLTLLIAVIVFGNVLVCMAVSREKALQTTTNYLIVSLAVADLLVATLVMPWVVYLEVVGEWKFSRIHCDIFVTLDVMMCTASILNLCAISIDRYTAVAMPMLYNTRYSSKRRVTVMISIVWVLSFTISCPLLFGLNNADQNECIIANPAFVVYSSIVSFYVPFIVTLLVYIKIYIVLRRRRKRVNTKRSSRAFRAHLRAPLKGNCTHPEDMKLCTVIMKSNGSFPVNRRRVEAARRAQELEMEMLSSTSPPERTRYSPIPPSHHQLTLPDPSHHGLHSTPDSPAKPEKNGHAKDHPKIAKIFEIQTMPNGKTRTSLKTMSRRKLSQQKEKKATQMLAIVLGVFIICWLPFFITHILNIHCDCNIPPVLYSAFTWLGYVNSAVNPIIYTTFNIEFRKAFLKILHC
Experimental: as §1
The pellets were stored at −80° C. until use. […] (Beckman Ultrazentrifuge XL 80).
as §2
a) Dopamine D2 Receptor Binding Assay
Non-specific binding was defined with 1 μM haloperidol.

Row | pKi (h-5-HT6 receptor) | pKd (dopamine D2 receptor) | Molecule
1 | > 7.00 |  | O=S(=O)(c1cccc(C(F)(F)F)c1)c1cnc2c(C3CCNCC3)cccc2c1 [Example 4, 8-(Piperidin-4-yl)-3-(3-(trifluoromethyl)phenylsulfonyl)quinoline]
2 | > 7.00 |  | O=S(=O)(c1ccc(F)cc1)c1cnc2c(C3CCNCC3)cccc2c1 [Example 5, 3-(4-Fluorophenylsulfonyl)-8-(piperidin-4-yl)quinoline]
3 | > 7.00 |  | O=S(=O)(c1cccc(Br)c1)c1cnc2c(C3CCNCC3)cccc2c1 [Example 6, 3-(3-Bromophenylsulfonyl)-8-(piperidin-4-yl)quinoline]
4 | > 7.00 |  | O=S(=O)(c1cccc(N2CCCC2)c1)c1cnc2c(C3CCNCC3)cccc2c1 [Example 7, 8-(Piperidin-4-yl)-3-(3-(pyrrolidin-1-yl)phenylsulfonyl)quinoline]
5 |  | 9.66 | iodospiperone [[^125I]-iodospiperone]

Further lines, the molecule ahead of its results:

Row | Molecule | pKi (h-5-HT6 receptor) | pKd (dopamine D2 receptor)
6 | O=S(=O)(c1ccccc1)c1cnc2c(C3CNC3)cccc2c1 [Example 1, 8-(Azetidin-3-yl)-3-(phenylsulfonyl)quinoline hydrochloride] | > 7.00 | 
7 | O=S(=O)(c1ccccc1)c1cnc2c(C3CCNCC3)cccc2c1 [Example 2, 3-(Phenylsulfonyl)-8-(piperidin-4-yl)quinoline hydrochloride] | > 7.00 | 
8 | O=S(=O)(c1ccccc1)c1cnc2c(C3CCN(Cc4ccccc4)C3)cccc2c1 (centres unmarked) [Example 3, 8-(1-Benzylpyrrolidin-3-yl)-3-(phenylsulfonyl)quinoline] | < 6.00 | 
